Data reported in patent US20240009170A1, “INHIBITION OF GLYCOGEN SYNTHASE KINASE-3 (GSK-3)” (Brown University, priority 2020, published 2024).
Where two headings read alike, the source gives them in different places.

How the values were obtained:
[1] = test system: colorectal cancer cells; assay: Co-culture with pre-treatment of effector or target cell population; assay type: cell-based, Human; settings: target cells pre-treated before co-culture
Protocol: Co-culture experiments were conducted with GFP+ SW480 colorectal cancer cells and either NK-92 natural killer cells or TALL-104 T cells at various effector/target ratios in a 48-well plate, in the presence or absence of 9-ING-41. Follow-up experiments compared the effect of pre-treating either the effector or the target cell population with 9-ING-41 before the co-culture experiment was started.

[2] = test system: prostate cancer cell lines; settings: cited from earlier work
[3] = test system: pulmonary fibrosis; settings: cited from earlier work
[4] = in vivo; cited from earlier work
[5] = test system: HCT-116; assay: Flow cytometric analysis of cell surface markers, HCT-116; assay type: cell-based, Human; settings: post-treatment
Protocol: FIG. 12 is a set of bar graphs showing flow cytometric analyses of cell surface markers of tumor and immune cells treated with 9-ING-41 in vitro. FIG. 12(A) HCT-116, FIG. 12(B) HT-29, FIG. 12(C) TALL-104, and FIG. 12(D) NK-92 cells were treated with indicated concentrations of 9-ING-41 for forty-eight hours, stained for indicated cell surface marker expression, and analyzed with a BD LSRII. Statistical significance was determined using two-tailed unpaired T tests.
To further understand the differential 9-ING-41-mediated impacts on protein expression, the inventors treated tumor and immune cells in vitro with 9-ING-41, then performed a flow cytometric analysis for expression of cell surface markers. […] A similar trend occurred in HT-29 cells, although not statistically significant. […] FIG. 10(C). […] FIG. 10(D).

[6] = test system: NK-92 cells; assay: Cytokine profile of immune cell culture supernatant, NK-92; assay type: cell-based, Human; settings: 1 μM, 48 hours
Protocol: (§1) Collection of cell culture supernatants used in cytokine measurements. Cells were plated at 3.5×10^4 cells in a 48-well plate (Thermo Fisher Scientific, Waltham, MA, USA) in complete medium and incubated at 37° C. with 5% CO2. At twenty-four hours after plating, almost all the tumor cells were adherent to the bottom of the flask and the complete medium was replaced with drug-containing medium. Subsequently, the culture supernatants were collected after forty-eight hours of incubation and were frozen at −80° C. until the measurement of cytokines was performed. The day of analysis, samples were thawed and centrifuged to remove cellular debris.
Human cytokine profiling. Human cell line culture supernatants were analyzed using an R&D systems Human Premixed Multi-Analyte Kit (R&D Systems, Inc., Minneapolis, MN, USA) and a Luminex 200 Instrument (LX200-XPON-RUO, Luminex Corporation, Austin, TX, USA) according to the manufacturer's instructions. […]
9-ING-41 increases secreted cytotoxic proteins IFN-v, Granzyme B, and TRAIL in immune cells. […] Here, the inventors determined how 9-ING-41 treatment impacts the immune cell cytokinome. […]

[7] = test system: human colorectal cell lines (HCT-116, HT-29, KM12C); assay: Cytokine, chemokine and growth factor profile of tumor cell culture supernatant (Luminex 200); assay type: cell-based
Protocol: as §1
Human cytokine profiling. Human cell line culture supernatants were analyzed using an R&D systems Human Premixed Multi-Analyte Kit (R&D Systems, Inc., Minneapolis, MN, USA) and a Luminex 200 Instrument (LX200-XPON-RUO, Luminex Corporation, Austin, TX, USA) according to the manufacturer's instructions. Sample levels of TNF-α, 4-1BB/TNFRSF9/CD137, IL-8/CXCL8, Ferritin, IFN-β, IL-10, CCL2/JE/MCP-1, VEGF, CXCL13/BLC/BCA-1, IFN-γ, CCL20/MIP-3 α, CCL3/MIP-1 α, CCL22/MDC, CCL4/MIP-1 β, Fas Ligand/TNFSF6, IL-17/IL-17A, IL-2, BAFF/BLyS/TNFSF13B, GM-CSF, CXCLS/ENA-78, TRANCE/TNFSF11/RANK L, CXCL9/MIG, G-CSF, IFN-γ R1/CD119, VEGFR3/Flt-4, C-Reactive Protein/CRP, CXCL11/I-TAC, IL-21, CXCL14/BRAK, IL-6, Fas/TNFRSF6/CD95, TRAIL R3/TNFRSF10C, IL-4, CCL5/RANTES, PD-L1/B7-H1, CCL7/MCP-3/MARC, Chitinase 3-like 1, CXCL10/IP-10/CRG-2, IL-1β/IL-1F2, IL-7, Prolactin, CCL8/MCP-2, TRAIL R2/TNFRSF10B, M-CSF, IL-15, Granzyme B, IFN-α, TREM-1, IL-12/IL-23 p40, TRAIL/TNFSF10, CCL11/Eotaxin, and IL-18/IL-1F4. Sample values are reported in picograms per milliliter (pg/mL).
Cells were treated with 9-ING-41, a selective and potent small molecule inhibitor of GSK-3β, at doses up to 100 μM for seventy-two hours to determine IC10, IC30, IC50, and IC70. Cytokine, chemokine, and growth factor levels were analyzed in the tumor cell culture supernatants after treatment at IC10, IC30, IC50, and IC70 for forty-eight hours using a Luminex 200 multiplexing instrument.

[8] = test system: HCT-116 colorectal cancer cells; assay: Co-culture of HCT-116 and NK-92 cells with or without αPD-1 therapy; assay type: cell-based, Human; settings: 9-ING-41+NK-92
Protocol: Immune cell co-culture experiments. Co-culture experiments were conducted with GFP+ SW480 or HCT-116 colorectal cancer cells and either NK-92 natural killer cells or TALL-104 T cells in a 48-well plate, in the presence or absence of 9-ING-41. HCT-116 cells were labeled using CellTracker™ Green CMFDA (5-chloromethylfluorescein diacetate), immune cells (NK-92, TALL-104) were labeled using CellTracker™ Blue CMAC Dye (7-amino-4-chloromethylcoumarin), and ethidium homodimer-1 (EthD-1) was used as a marker of cell death (Invitrogen, Thermo Fisher Scientific, Waltham, MA, USA).

[9] = Body weight, complete blood count and serum chemistry in the CT-26 BALB/c model; set-up: species or system BALB/c mice; settings: mouse, in vivo
Description: As can be expected in mice with significant tumor burdens, mice across treatment groups had decreased albumin levels and evidence of mild marrow hypoplasia resulting in mild anemia, and lower white blood cell and platelet counts. This effect was independent of treatment group and likely related to tumor burden at the time of sacrifice.

[10] = test system: GSK-3; settings: cited from earlier work
[11] = test system: ovarian cancer; settings: cited from earlier work

## Cn1cc(C2=C(c3coc4ccc(F)cc34)C(=O)NC2=O)c2cc3c(cc21)OCO3 [9-ING-41]
[1]
  cell-killing after pre-treatment of the target tumor cells: bolstered cell-killing
[2]
  expression of PD-L1: regulated the expression of PD-L1
[3]; models of TGF-β
  pulmonary fibrosis and pulmonary function: reduced pulmonary fibrosis and improved pulmonary function
[3]; models of bleomycin pulmonary fibrosis
  pulmonary fibrosis and pulmonary function: reduced pulmonary fibrosis and improved pulmonary function
[4]
  blood brain barrier: crosses the blood brain barrier
[5]
  DR5 expression: significant decreased
  ICAM-1 expression: significant increase
[5]; 48 hours
  HLA-E and PD-L1 surface expression: statistically significant increase
[6]
  IFN-γ and TRAIL: increases
  concentration of secreted granzyme B: decreases
[7]; colorectal cancer cell lines, regression slope analysis, 48 hours
  shed PD-L1: decreases
[7]; increasing doses (IC10-IC70), 48 hours
  overall cytokine levels: decreasing trend
[7]; increasing doses, 48 hours, supernatant
  VEGF: most prominently decreased
[7]; increasing doses, supernatant
  expression of chemokine CXCL14 (BRAK): increase
[7]; supernatant
  macrophage colony-stimulating factor (M-CSF): decrease
[8]
  benefit over combination αPD-1 therapy+NK-92 only groups: significant benefit
[9]
  electrolyte perturbations: free of significant electrolyte perturbations
  renal function (blood urea nitrogen and creatinine): maintained normal renal function
[10]
  GSK-3 isoforms inhibited: inhibits both α and β isoforms
  potency compared with other GSK-3 inhibitors: significantly more potent
[11]
  activity compared with lithium and other ATP-competitive inhibitors such as SB216763: more active
